Experimental data published in patent publication US10660877B2 (BRISTOL-MYERS SQUIBB COMPANY, priority 2016, dated 2020).
Read-outs that look alike come from different tables or passages of the source.

Experiments:
[1] = biological target: human TLR8 (Homo sapiens (Human), UniProt Q9NR97); assay: TLR8 inhibition reporter assay (HEK-Blue cells, SEAP reporter, R848 stimulation);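 also: compounds tested from 0.05 nM to 50 µM, 22 h at 37 °C, SEAP measured with HEK-Blue Detection, inhibition relative to agonist plus DMSO versus a known inhibitor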
Chain of human TLR8 (Q9NR97 27-1041): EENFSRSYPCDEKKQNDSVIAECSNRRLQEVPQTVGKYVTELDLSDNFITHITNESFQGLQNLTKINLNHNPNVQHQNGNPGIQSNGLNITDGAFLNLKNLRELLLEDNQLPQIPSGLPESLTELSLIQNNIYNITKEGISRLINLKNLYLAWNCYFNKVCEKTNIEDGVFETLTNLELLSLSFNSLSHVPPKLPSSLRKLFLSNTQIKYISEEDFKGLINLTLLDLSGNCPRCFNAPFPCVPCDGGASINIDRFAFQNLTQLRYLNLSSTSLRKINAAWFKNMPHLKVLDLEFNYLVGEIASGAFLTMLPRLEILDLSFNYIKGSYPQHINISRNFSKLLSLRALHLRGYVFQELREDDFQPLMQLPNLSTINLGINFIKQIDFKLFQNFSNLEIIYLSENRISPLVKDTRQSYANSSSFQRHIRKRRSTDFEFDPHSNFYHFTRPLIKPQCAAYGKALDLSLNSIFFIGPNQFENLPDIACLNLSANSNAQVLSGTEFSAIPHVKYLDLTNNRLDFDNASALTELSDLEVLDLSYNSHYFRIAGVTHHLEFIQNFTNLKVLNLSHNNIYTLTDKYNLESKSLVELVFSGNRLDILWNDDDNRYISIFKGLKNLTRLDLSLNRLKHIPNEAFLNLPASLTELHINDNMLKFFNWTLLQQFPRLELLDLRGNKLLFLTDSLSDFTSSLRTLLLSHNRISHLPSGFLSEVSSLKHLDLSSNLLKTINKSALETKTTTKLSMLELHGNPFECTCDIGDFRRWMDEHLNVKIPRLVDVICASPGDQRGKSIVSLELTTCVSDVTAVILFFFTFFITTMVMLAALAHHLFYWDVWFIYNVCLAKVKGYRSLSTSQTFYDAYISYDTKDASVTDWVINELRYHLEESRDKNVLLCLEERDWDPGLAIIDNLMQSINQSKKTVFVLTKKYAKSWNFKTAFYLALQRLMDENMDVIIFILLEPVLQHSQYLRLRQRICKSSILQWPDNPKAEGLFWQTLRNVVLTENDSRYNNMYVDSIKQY

[2] = biological target: human TLR9 (Homo sapiens (Human), UniProt Q9NR96); assay: TLR9 inhibition reporter assay (HEK-Blue cells, SEAP reporter, ODN2006 stimulation);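 also: compounds tested over 0.05 nM to 50 µM, 22 h incubation, inhibition taken as SEAP signal drop from agonist plus DMSO wells toward a known inhibitor control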
Chain of human TLR9 (Q9NR96 26-1032): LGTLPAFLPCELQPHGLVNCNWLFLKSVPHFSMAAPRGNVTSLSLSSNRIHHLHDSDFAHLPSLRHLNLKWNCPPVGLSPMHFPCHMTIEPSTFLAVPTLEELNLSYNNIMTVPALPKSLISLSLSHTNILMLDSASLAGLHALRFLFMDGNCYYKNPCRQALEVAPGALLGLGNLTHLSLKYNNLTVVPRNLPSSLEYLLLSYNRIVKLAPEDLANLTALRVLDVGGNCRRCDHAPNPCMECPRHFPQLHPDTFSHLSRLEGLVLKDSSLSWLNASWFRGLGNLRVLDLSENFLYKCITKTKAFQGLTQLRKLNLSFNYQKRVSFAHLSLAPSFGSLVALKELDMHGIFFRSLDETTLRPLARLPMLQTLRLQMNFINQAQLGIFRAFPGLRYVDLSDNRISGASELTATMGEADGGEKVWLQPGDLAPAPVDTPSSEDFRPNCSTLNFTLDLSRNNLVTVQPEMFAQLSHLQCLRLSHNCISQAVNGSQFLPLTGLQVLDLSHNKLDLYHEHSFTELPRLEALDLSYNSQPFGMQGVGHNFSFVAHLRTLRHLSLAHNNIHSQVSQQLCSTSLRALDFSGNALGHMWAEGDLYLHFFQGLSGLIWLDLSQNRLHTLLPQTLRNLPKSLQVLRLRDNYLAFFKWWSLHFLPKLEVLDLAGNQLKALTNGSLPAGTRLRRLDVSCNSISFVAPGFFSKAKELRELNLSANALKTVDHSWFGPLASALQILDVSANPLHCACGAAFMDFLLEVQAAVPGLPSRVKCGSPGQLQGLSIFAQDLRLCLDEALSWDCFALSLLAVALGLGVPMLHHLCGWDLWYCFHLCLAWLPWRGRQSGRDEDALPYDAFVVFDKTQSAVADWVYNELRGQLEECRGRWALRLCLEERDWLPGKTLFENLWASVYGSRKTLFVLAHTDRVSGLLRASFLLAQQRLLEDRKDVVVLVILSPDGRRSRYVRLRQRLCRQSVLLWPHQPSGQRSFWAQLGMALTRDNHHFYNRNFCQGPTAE

[3] = biological target: human TLR7 (Homo sapiens (Human), UniProt Q9NYK1); assay: TLR7 inhibition reporter assay (HEK-Blue cells, SEAP reporter, gardiquimod stimulation); type: cell-based
Chain of human TLR7 (Q9NYK1 27-1049): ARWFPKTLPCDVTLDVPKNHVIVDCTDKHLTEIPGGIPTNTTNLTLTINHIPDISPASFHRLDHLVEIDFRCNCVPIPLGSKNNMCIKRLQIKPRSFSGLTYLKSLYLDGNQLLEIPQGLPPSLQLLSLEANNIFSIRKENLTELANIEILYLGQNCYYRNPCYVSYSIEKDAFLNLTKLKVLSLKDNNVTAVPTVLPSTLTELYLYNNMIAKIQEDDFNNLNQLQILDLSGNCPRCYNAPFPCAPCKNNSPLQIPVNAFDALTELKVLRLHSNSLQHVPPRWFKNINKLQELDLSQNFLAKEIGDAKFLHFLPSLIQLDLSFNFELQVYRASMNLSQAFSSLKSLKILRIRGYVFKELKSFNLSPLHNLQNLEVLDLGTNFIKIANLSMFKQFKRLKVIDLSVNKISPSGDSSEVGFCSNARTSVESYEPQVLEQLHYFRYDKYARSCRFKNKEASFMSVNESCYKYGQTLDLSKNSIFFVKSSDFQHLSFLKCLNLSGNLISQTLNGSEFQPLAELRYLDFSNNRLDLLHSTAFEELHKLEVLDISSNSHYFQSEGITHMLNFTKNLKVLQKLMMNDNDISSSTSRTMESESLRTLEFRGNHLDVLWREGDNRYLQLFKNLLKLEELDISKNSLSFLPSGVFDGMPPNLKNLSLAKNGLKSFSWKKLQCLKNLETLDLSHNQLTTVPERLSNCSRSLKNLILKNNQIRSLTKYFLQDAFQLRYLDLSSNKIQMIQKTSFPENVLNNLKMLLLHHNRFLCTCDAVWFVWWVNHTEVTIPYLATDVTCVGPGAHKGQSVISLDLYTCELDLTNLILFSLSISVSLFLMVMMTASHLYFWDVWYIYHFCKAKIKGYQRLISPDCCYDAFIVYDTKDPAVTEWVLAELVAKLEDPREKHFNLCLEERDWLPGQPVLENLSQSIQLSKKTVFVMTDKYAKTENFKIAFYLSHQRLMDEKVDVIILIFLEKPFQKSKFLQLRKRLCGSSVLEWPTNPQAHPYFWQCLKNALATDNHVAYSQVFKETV
Description: TLR7/8/9 Inhibition Reporter Assays
Briefly, cells are seeded into Greiner 384 well plates (15000 cells per well for TLR7, 20,000 for TLR8 and 25,000 for TLR9) and then treated with test compounds in DMSO to yield a final dose response concentration range of 0.05 nM-50 μM. […] After a 22 hour incubation at 37° C., 5% CO2, SEAP levels are determined with the addition of HEK-Blue™ Detection reagent (Invivogen), a cell culture medium that allows for detection of SEAP, according to manufacturer's specifications. The percent inhibition is determined as the % reduction in the HEK-Blue signal present in wells treated with agonist plus DMSO alone compared to wells treated with a known inhibitor.

[4] = read-out: TLR8 IC50, HEK-Blue cells overexpressing human TLR8, R848 15.9 μM
[5] = read-out: TLR9 IC50, HEK-Blue cells overexpressing human TLR9, ODN2006 5 nM
[6] = HEK-Blue cells overexpressing human TLR7, gardiquimod 7.5 μM
[7] = TLR8 IC50, HEK-Blue cells overexpressing human TLR8, R848 15.9 μM
[8] = TLR9 IC50, HEK-Blue cells overexpressing human TLR9, ODN2006 5 nM

Structure (SMILES) | IC50 [1, 4] [nM] | IC50 [2, 5] [nM] | IC50 [3, 6] [nM] | IC50 [1, 7] [nM] | IC50 [2, 8] [nM] | IC50 ([1]; read-out: TLR8 IC50, HEK-Blue cells, R848 15.9 μM) [nM] | IC50 ([2]; read-out: TLR9 IC50, HEK-Blue cells, ODN2006 5 nM) [nM] | IC50 ([3]; HEK-Blue cells, gardiquimod 7.5 μM) [nM]
Cc1cc(-c2[nH]c3ccc(C4CCN(CC(=O)N5CCC(F)(F)CC5)CC4)cc3c2C(C)C)cc(C)n1 [Example 257, 1-(4,4-difluoropiperidin-1-yl)-2-(4-(2-(2,6-dimethylpyridin-4-yl)-3-isopropyl-1H-indol-5-yl)piperidin-1-yl)ethan-1-one] | 13.8 | 607 | 9.8 | – | – | – | – | –
Cc1cc(-c2[nH]c3ccc(C4CCN(C(=O)CNCC(C)O)CC4)cc3c2C(C)C)cc(C)n1 (stereo not drawn) [Example 367, 1-(4-(2-(2,6-dimethylpyridin-4-yl)-3-isopropyl-1H-indol-5-yl)piperidin-1-yl)-2-((2-hydroxypropyl)amino)ethan-1-one] | – | – | 6.5 | 54.1 | 1890 | – | – | –
Cc1cc(-c2[nH]c3ccc(C4CCN(CC(=O)N(CCO)Cc5ccc(F)cc5)CC4)cc3c2C(C)C)cc(C)n1 [Example 300, 2-(4-(2-(2,6-dimethylpyridin-4-yl)-3-isopropyl-1H-indol-5-yl)piperidin-1-yl)-N-(4-fluorobenzyl)-N-(2-hydroxyethyl)acetamide] | 70.7 | 1660 | 28.8 | – | – | – | – | –
Cc1cc(-c2[nH]c3ccc(C4CCN(C5COC5)CC4)cc3c2C(C)C)ccn1 [Example 711, 3-isopropyl-2-(2-methylpyridin-4-yl)-5-(1-(oxetan-3-yl)piperidin-4-yl)-1H-indole] | 11.2 | 2160 | 11 | – | – | – | – | –
Cc1cc(-c2[nH]c3ccc(C4CCN(C(=O)C(=O)N(C)C)CC4)cc3c2C(C)C)ccn1 [Example 878, 2-(4-(3-isopropyl-2-(2-methylpyridin-4-yl)-1H-indol-5-yl)piperidin-1-yl)-N,N-dimethyl-2-oxoacetamide] | – | – | – | – | – | 175 | 28000 | 55.1
CCc1c(-c2ccnc(C)c2)[nH]c2ccc(C3CCN(CCCN(C)C)CC3)cc12 [Example 673, 3-(4-(3-ethyl-2-(2-methylpyridin-4-yl)-1H-indol-5-yl)piperidin-1-yl)-N,N-dimethylpropan-1-amine] | 23.1 | 287 | 70.5 | – | – | – | – | –
Cc1cc(-c2[nH]c3ccc(C4CCN(S(=O)(=O)c5ccccc5)CC4)cc3c2C(C)C)ccn1 [Example 547, 3-isopropyl-2-(2-methylpyridin-4-yl)-5-(1-(phenylsulfonyl)piperidin-4-yl)-1H-indole] | 1040 | > 50000 | 333 | – | – | – | – | –
Cc1cc(-c2[nH]c3ccc(C4CCN(Cc5c[nH]nn5)CC4)cc3c2C(C)C)c(F)cn1 [Example 691] | 2.6 | 2570 | 7 | – | – | – | – | –
Cc1cc(-c2[nH]c3ccc(C4CCN(C(=O)CNCCC(C)O)CC4)cc3c2C(C)C)cc(C)n1 (stereo not drawn) [Example 369, 1-(4-(2-(2,6-dimethylpyridin-4-yl)-3-isopropyl-1H-indol-5-yl)piperidin-1-yl)-2-((3-hydroxybutyl)amino)ethan-1-one] | 93.8 | 1060 | 10.3 | – | – | – | – | –
Cc1cc(-c2[nH]c3ccc(C4CCN(C(=O)CN(C)CC(O)c5ccccc5)CC4)cc3c2C(C)C)cc(C)n1 (stereo not drawn) [Example 399, 1-(4-(2-(2,6-dimethylpyridin-4-yl)-3-isopropyl-1H-indol-5-yl)piperidin-1-yl)-2-((2-hydroxy-2-phenylethyl)(methyl)amino)ethan-1-one] | 66.9 | 688 | 6.1 | – | – | – | – | –
Cc1cc(-c2[nH]c3ccc(C4CCN(CC(=O)N5CCC(F)CC5)CC4)cc3c2C(C)C)cc(C)n1 [Example 283, 2-(4-(2-(2,6-dimethylpyridin-4-yl)-3-isopropyl-1H-indol-5-yl)piperidin-1-yl)-1-(4-fluoropiperidin-1-yl)ethan-1-one] | 8.9 | 248 | 2.6 | – | – | – | – | –
CCc1c(-c2ccnc(C)c2)[nH]c2ccc(C3CCN(C(=O)C4CCCNC4)CC3)cc12 (stereo not drawn) [Example 624, (4-(3-ethyl-2-(2-methylpyridin-4-yl)-1H-indol-5-yl)piperidin-1-yl)(piperidin-3-yl)methanone] | 44.1 | 311 | 128 | – | – | – | – | –
Cc1cc(-c2[nH]c3ccc(C4CCNCC4O)cc3c2C(C)C)cc(C)n1 (single isomer, unassigned) [Example 488B, 4-(2-(2,6-dimethylpyridin-4-yl)-3-isopropyl-1H-indol-5-yl)piperidin-3-ol] | – | – | 2.4 | 33.1 | 308 | – | – | –
CCc1c(-c2ccnc(OC)c2)[nH]c2ccc(C3CCN(C4CCN(CC(C)C)CC4)CC3)cc12 [Example 780, 3-ethyl-5-(1′-isobutyl-[1,4′-bipiperidin]-4-yl)-2-(2-methoxypyridin-4-yl)-1H-indole] | 81.1 | 412 | 502 | – | – | – | – | –
Cc1cc(-c2[nH]c3ccc(C4CCN(CCC#N)CC4)cc3c2C(C)C)cc(C)n1 [Example 315, 3-(4-(2-(2,6-dimethylpyridin-4-yl)-3-isopropyl-1H-indol-5-yl)piperidin-1-yl)propanenitrile] | 9 | 1060 | 6.6 | – | – | – | – | –
Cc1cc(-c2[nH]c3ccc(C4CCNCC4)cc3c2C(C)C)c(C(N)=O)cn1 [Example 15, 4-(3-isopropyl-5-(piperidin-4-yl)-1H-indol-2-yl)-6-methylnicotinamide] | 448 | 26500 | 1540 | – | – | – | – | –
Cc1cc(-c2[nH]c3ccc(C4CCN(C(=O)CCNc5ncccn5)CC4)cc3c2C(C)C)cc(C)n1 [Example 146, 1-(4-(2-(2,6-dimethylpyridin-4-yl)-3-isopropyl-1H-indol-5-yl)piperidin-1-yl)-3-(pyrimidin-2-ylamino) propan-1-one] | 85.9 | 46800 | 7.4 | – | – | – | – | –
Cc1cc(-c2[nH]c3ccc(C4CCN(Cc5c[nH]cn5)CC4)cc3c2C(C)C)cc(C)n1 [Example 425, 5-(1-((1H-imidazol-4-yl)methyl)piperidin-4-yl)-2-(2,6-dimethylpyridin-4-yl)-3-isopropyl-1H-indole] | 2.5 | 143 | 3.7 | – | – | – | – | –
Cc1cc(-c2[nH]c3ccc(C4CCN(C(=O)CN5C[C@@H](F)C[C@H]5CO)CC4)cc3c2C(C)C)cc(C)n1 [Example 409, 1-(4-(2-(2,6-dimethylpyridin-4-yl)-3-isopropyl-1H-indol-5-yl)piperidin-1-yl)-2-((2S,4S)-4-fluoro-2-(hydroxymethyl)pyrrolidin-1-yl)ethan-1-one] | 67.9 | 2530 | 4.1 | – | – | – | – | –
CCc1c(-c2ccnc(C(=O)OC)c2)[nH]c2ccc(C3CCN(C4CCN(CC(C)C)CC4)CC3)cc12 [Example 762, methyl 4-(3-ethyl-5-(1′-isobutyl-[1,4′-bipiperidin]-4-yl)-1H-indol-2-yl)picolinate] | 14.3 | 223 | 708 | – | – | – | – | –
Cc1cc(-c2[nH]c3ccc(C4CCN(C(=O)C5CCOCC5)CC4)cc3c2C(C)C)ccn1 [Example 597, (4-(3-isopropyl-2-(2-methylpyridin-4-yl)-1H-indol-5-yl)piperidin-1-yl)(tetrahydro-2H-pyran-4-yl)methanone] | 117 | 26900 | 45.6 | – | – | – | – | –
Cc1cc(-c2[nH]c3ccc(C4CCNCC4)cc3c2C(C)C)ccn1 [Example 5, 3-isopropyl-2-(2-methylpyridin-4-yl)-5-(piperidin-4-yl)-1H-indole] | 3.9 | 946 | 6.1 | – | – | – | – | –
